In PMC6713100, “Anticancer sulfonamide hybrids that inhibit bladder cancer cells growth and migration as tubulin polymerisation inhibitors” (Journal of Enzyme Inhibition and Medicinal Chemistry, 2019):
Blank lines part the entries; values can stand above or below the compound they belong to.

Legend:
HT-29 cell line = tested on: HT-29 cell line; parameters: method as in PMID 26774930; settings: read-out: IC50 HT-29 cell viability; cited from earlier work
MCF-7 cells = tested on: MCF-7 cells; parameters: method as in PMID 28802125; settings: read-out: IC50 MCF-7 antiproliferative activity; cited from earlier work
T47D cells = tested on: T47D cells; parameters: method as in PMID 28212337; settings: read-out: IC50 T47D anticancer activity in vitro; cited from earlier work
RT-112 = test: CCK8 antiproliferative assay, bladder cancer cells RT-112; format: cell-based; settings: Homo sapiens, treatment for 48 h
Experimental: (§1) Breast cancer cells (MDA-MB-453), liver cancer cells (SNU-423), and bladder cancer cells (UM-UC-3, RT-112, RT4, T24) were purchased from the Shanghai culture company, and cultured at 37 °C in an atmosphere containing 5% CO2. 4,000 cells per well were seeded into a 96-well plate for 24 h and compounds were added to cluture 48 h. Next, 6 mg/ml CCK8 (20 µl) per well was added to explore the cell survival.
(§2) CCK8 method was used to investigate the anticancer activity in vitro of sulfonamide-dithiocarbamate hybrids 13a–13d against cancer cells for 48 h. MDA-MB-453 (breast cancer cells), SNU-423 (liver cancer cells) and RT-112 (bladder cancer cells) were selected to explore the antiproliferative activity. In this work, 5-fluorouracil (5-Fu) was used as the control drug.
(§3) In order to explore the antiproliferation ability, four bladder cancer cell lines (UM-UC-3, RT-112, RT4 and T24) were selected and treated with the hybrid 13d in the 24-well plate for 48 h and 72 h. […] Compared with the cell proliferation of 48 h, the cell proliferation of 72 h was decreased.

SNU-423 = test: CCK8 antiproliferative assay, liver cancer cells; format: cell-based; settings: Homo sapiens, treatment for 48 h, means of three independent experiments
Experimental: as §1, §2

MCF-7 = test: CCK8 antiproliferative assay, breast cancer cells; format: cell-based; settings: Homo sapiens, MCF7, treatment for 48 h, means of three independent experiments
[1] = tested on: MDA-MB-453, SNU-423 and RT-112; test: CCK8 antiproliferative assay, all three cancer cells; format: cell-based; settings: CCK8, 48 h; read-out: IC50 against all three cancer cells
Experimental: as §1, §2

tubulin = test: Tubulin polymerisation assay in vitro; format: biochemical; settings: for IC50: 6 mg/ml tubulin, PEM buffer, 37 °C, read-out: IC50 tubulin polymerisation inhibitory activity in vitro
Experimental: (§4) An amount of 6 mg/ml tubulin was resuspended in the PEM buffer (80 mM PIPES (pH 6.9), 1 mM EGTA, 0.5 mM MgCl2, […], 10.2% (v/v) glycerol) and then was preincubated with a sulfonamide-dithiocarbamate hybrid 13d on the ice. The reaction was monitored by a spectrophotometer (Beijng Tianhe Company) at 37 °C to obtain the results of tubulin polymerisation in vitro. RT-112 cells were treated with sulfonamide-dithiocarbamate hybrid 13d for 48 h. Then, slices were fixed by 4% paraformaldehyde for 20 min and washed by PBS for five times. 0.6% Triton-X-100 was added and 0.1% BSA was used to block. β-tubulin antibody was added to incubate overnight at 4 °C. DAPI was used to stain and then images were captured.
Tubulin polymerisation assay investigated that compound 13d inhibited tubulin polymerisation in a concentration dependent manner.

UM-UC-3 = test: Cell proliferation of bladder cancer cells UM-UC-3; format: cell-based; settings: Homo sapiens, UMUC3; treatment for 48 h
Experimental: as §1, §3

RT-112 cells [2] = test: Immunostaining of microtubules (β-tubulin antibody); format: cell-based
Experimental: as §4
Tubulin polymerisation inhibitory effects of the sulfonamide-dithiocarbamate hybrid 13d were further explored by the immunofluorescent staining in RT-112 cells. […] However, after the exposure to 0.25 µM of compound 13d, the microtubule organisation in the cytosol were disrupted.

RT4 = test: Cell proliferation of bladder cancer cells RT4; format: cell-based; settings: Homo sapiens, RT-4; treatment for 48 h
Experimental: as §1, §3

RT-112 cells [3] = test: RT-112 xenograft nude mouse model; format: in vivo, nude mice; settings: 80 mg/kg intragastric, every day for 21 days
Experimental: In vivo experiments were processed according to guidelines established by the ethics committee of the 4th affiliated hospital of CMU. Mice were implanted with RT-112 cells (1.5 × 10^7 cells per mouse) on the right flank of nude mice. The mice were divided into the saline group and sulfonamide-dithiocarbamate hybrid 13d (80 mg/kg) group (n = 5 mice for each group). Intragastric administration of hybrid 13d was performed every day for a period of 21 days.
In order to investigate the tumor growth effects of compound 13d, the xenograft nude mouse of RT-112 cells were established.

[4] = tested on: E-cadherin, N-cadherin, Vimentin, Snail and Slung in RT-112 cells; test: Western blot of migration-related proteins; format: cell-based; settings: 48 h, 0.5, 1 and 2 µM
Experimental: RT-112 cells were treated with compound 13d and then lysed in a RIPA lysis buffer. The protein samples of RT-112 cells were electrophoresed on SDS-PAGE. Nextly, targeted proteins were transferred to PVDF membrane and incubated with antibodies (E-cadherin, N-cadherin, Vimentin, Snail and Slung). The markers were visualised by chemiluminescence detection reagents.
To further characterise the migration effect of sulfonamide-dithiocarbamate hybrid 13d, the expression levels of migration-related proteins (E-cadherin, N-cadherin, Vimentin, Snail and Slung) were investigated against RT-112 cells. Compound 13d was treated for 48 h at concentrations of 0.5, 1 and 2 µM, respectively. […] In addition, hybrid 13d increased the expression of E-cadherin in a concentration manner.

RT-112 cells [5] = test: Transwell migration assay; format: cell-based; settings: 48 h
Experimental: Transwell chamber was used to do migration assay according to the reported references[17]^,[18]. Ten thousand RT-112 cells containing compound 13d were seeded in the top chambers for 24 h incubation. The bottom chambers were fixed and stained with crystal violet for 2 h. Finally, the chambers were washed with water, and the top membrane was left to dry.
Based on the antiproliferative activity results, compound 13d was selected to investigate the anticancer mechanisms against the RT-112 cell line. Corning transwell plate was used to do migration assay against RT-112 cells for 48 h. With the treatment of sulfonamide-dithiocarbamate hybrid 13d at 0.5, 1 and 2 µM, the migration rate of RT-112 cells was 76%, 40% and 29%, respectively.

T24 = test: Cell proliferation of bladder cancer cells T24; format: cell-based; settings: Homo sapiens, T-24; treatment for 48 h
Experimental: as §1, §3

SMILES: NS(=O)(=O)c1ccc(Nc2nc(-c3ccc(Cl)cc3)nc3ccccc23)cc1 [Compound 2]
IC50 (HT-29 cell line): 5.45 µM

SMILES: NS(=O)(=O)c1ccc(/N=C2\NC(=O)/C(=C3/C(=O)Nc4ccc(Cl)cc43)S2)cc1 [Compound 3]
IC50 (MCF-7 cells): 3.96 µM

SMILES: C#CCSc1ccnc2c(S(=O)(=O)N(C)CC#C)cccc12 [Compound 4]
IC50 (T47D cells): 0.27 µM

IC50 (RT-112): 13.6 ± 0.2 µM
IC50 (SNU-423): 10.8 ± 0.7 µM
IC50 (MCF-7): 7.4 ± 0.5 µM
SMILES: O=c1[nH]cc(F)c(=O)[nH]1 [Compound 5-Fu, 5-fluorouracil, reference compound]

IC50 (RT-112): > 40 µM
IC50 (SNU-423): > 40 µM
IC50 (MCF-7): > 40 µM
IC50 [1]: > 40 µM
melting point: 181 to 183 °C
SMILES: COc1cc(NS(=O)(=O)c2cccc3cccnc23)cc(OC)c1OC [Compound 11, N-(3,4,5-trimethoxyphenyl)quinoline-8-sulfonamide]

IC50 (RT-112): > 40 µM
IC50 (SNU-423): > 40 µM
IC50 (MCF-7): > 40 µM
IC50 [1]: > 40 µM
melting point: 129 to 131 °C
SMILES: COc1cc(N(CCCBr)S(=O)(=O)c2cccc3cccnc23)cc(OC)c1OC [Compound 12, N-(3-bromopropyl)-N-(3,4,5-trimethoxyphenyl)quinoline-8-sulfonamide]

IC50 (RT-112): 7.8 ± 0.4 µM
IC50 (SNU-423): 8.7 ± 0.9 µM
IC50 (MCF-7): 6.4 ± 1.2 µM
melting point: 96 to 98 °C
SMILES: COc1cc(N(CCCSC(=S)N2CCN(C)CC2)S(=O)(=O)c2cccc3cccnc23)cc(OC)c1OC [Compound 13a, 3-(N-(3,4,5-trimethoxyphenyl)quinoline-8-sulfonamido)propyl-4-methylpiperazine-1-carbodithioate]

IC50 (RT-112): 6.8 ± 0.7 µM
IC50 (SNU-423): 5.4 ± 0.3 µM
IC50 (MCF-7): 8.5 ± 0.7 µM
melting point: 131 to 133 °C
SMILES: CCN1CCN(C(=S)SCCCN(c2cc(OC)c(OC)c(OC)c2)S(=O)(=O)c2cccc3cccnc23)CC1 [Compound 13b, 3-(N-(3,4,5-trimethoxyphenyl)quinoline-8-sulfonamido)propyl-4-ethylpiperazine-1-carbodithioate]

IC50 (RT-112): 4.1 ± 0.6 µM
IC50 (SNU-423): 3.6 ± 0.7 µM
IC50 (tubulin): 3.4 µM
IC50 (MCF-7): 4.2 ± 0.1 µM
melting point: 106 to 108 °C
SMILES: COc1cc(N(CCCSC(=S)N2CCN(CCO)CC2)S(=O)(=O)c2cccc3cccnc23)cc(OC)c1OC [Compound 13c, 3-(N-(3,4,5-trimethoxyphenyl)quinoline-8-sulfonamido)propyl-4–(2-hydroxyethyl)piperazine-1-carbodithioate]
tubulin polymerisation inhibition (tubulin; at 2 µM): weak inhibition
tubulin polymerisation inhibition (tubulin; at 6 µM): significantly inhibited

IC50 (RT-112): 0.7 ± 0.1 µM
IC50 (UM-UC-3): 0.9 µM
IC50 (RT4): 1.9 µM
IC50 (SNU-423): 3 ± 0.1 µM
IC50 (tubulin): 2.9 µM
IC50 (MCF-7): 2.8 ± 0.2 µM
melting point: 128 to 129 °C
IC50 (T24): 2.6 µM
SMILES: COc1cc(N(CCCSC(=S)N2CCN(C(C)=O)CC2)S(=O)(=O)c2cccc3cccnc23)cc(OC)c1OC [Compound 13d, 3-(N-(3,4,5-trimethoxyphenyl)quinoline-8-sulfonamido)propyl-4-acetylpiperazine-1-carbodithioate]
microtubule organisation in the cytosol (RT-112 cells [2]; 0.25 µM): disrupted
changes of the mitotic spindles (RT-112 cells [2]; 0.5 µM): more clearly observed
average tumor weight (RT-112 cells [3]): 0.51 ± 0.21 g
body weights versus control group (RT-112 cells [3]): no significant difference
inhibitory rate (tumor weight) (RT-112 cells [3]): 66.67%
tumor volume versus control group (RT-112 cells [3]): obviously less than that of the control group
tubulin polymerisation inhibition (tubulin; at 2 µM): weak inhibition
tubulin polymerisation inhibition (tubulin; at 6 µM): significantly inhibited
expression of E-cadherin [4]: increased
expression of N-cadherin [4]: decreased
expression of Slung [4]: decreased
expression of Snail [4]: decreased
expression of Vimentin [4]: decreased
migration rate of RT-112 cells (RT-112 cells [5]; 13d at 0.5 µM): 76%
migration rate of RT-112 cells (RT-112 cells [5]; 13d at 1 µM): 40%
migration rate of RT-112 cells (RT-112 cells [5]; 13d at 2 µM): 29%
